Source: PMC6755085, “Cyclic oligoadenylate signalling mediates Mycobacterium tuberculosis CRISPR defence” (Nucleic Acids Research, 2019)

Target: T1, TsuCsx1 (Thioalkalivibrio sulfidiphilus, UniProt B8GSI1)
T1 construct: gene Tgr7_1803; full-length; N-terminal His8 fusion (pEV5HisTEV), no tag cleavage described; synthetic gene; E. coli C43; dimer
Test: activation of cleavage of […]-labelled RNA, denaturing PAGE
Type: biochemical
Details: synthetic cA4, 1 µM; 0.5 µM TsuCsx1 dimer; 20 mM Tris-HCl, 150 mM NaCl, 1 mM DTT, pH 7.5; 35 °C; activator

T1 sequence (B8GSI1 entry or part of it): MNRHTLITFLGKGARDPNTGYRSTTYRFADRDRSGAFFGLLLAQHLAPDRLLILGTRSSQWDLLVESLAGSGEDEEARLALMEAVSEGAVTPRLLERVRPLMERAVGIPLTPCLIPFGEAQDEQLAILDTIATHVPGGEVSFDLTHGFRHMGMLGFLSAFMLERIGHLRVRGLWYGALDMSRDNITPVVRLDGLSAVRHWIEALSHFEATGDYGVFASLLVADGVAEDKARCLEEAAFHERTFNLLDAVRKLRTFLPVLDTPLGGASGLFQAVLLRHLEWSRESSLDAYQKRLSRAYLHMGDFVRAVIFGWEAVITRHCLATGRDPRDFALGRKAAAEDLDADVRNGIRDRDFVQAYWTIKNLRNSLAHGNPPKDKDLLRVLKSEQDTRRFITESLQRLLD

## Nc1ncnc2c1ncn2[C@@H]1O[C@@H]2COP(=O)(O)O[C@H]3[C@@H](O)[C@H](n4cnc5c(N)ncnc54)O[C@@H]3COP(=O)(O)O[C@H]3[C@@H](O)[C@H](n4cnc5c(N)ncnc54)O[C@@H]3COP(=O)(O)O[C@H]3[C@@H](O)[C@H](n4cnc5c(N)ncnc54)O[C@@H]3COP(=O)(O)O[C@H]2[C@H]1O [cA4]
  activation of cleavage of 32P-labelled RNA, denaturing PAGE: TsuCsx1 was strongly activated by synthetic cA4 but not by cA6
